Data as given in patent US6610682B2, “Pharmaceutical compositions and methods for the treatment of arteriosclerosis” (Sankyo Company, Limited, priority 1996, dated 2003).

Experiments:
Format in all cases: in vivo, rabbit
[1] = test system: WHHL rabbits; experiment: Arterial sclerosis progress inhibitory effect: surface area of aortic lesions (Example 2, 31 weeks); details: oral, CS-866 0.5 mg/kg, pioglitazone 20 mg/kg, BRL-49653 2.5 mg/kg, alone or combined, autopsy in 31st week
Procedure: A certain amount of an agent was administered orally for 31 weeks to 2-3 months old WHHL rabbits, Watanabe genetically hyperlipemic rabbits: described supra (Biochimica et Biophysica Acta), etc., in groups of 5 to 7 animals each. Incidentally, food consumption was restricted to 100 g/day per animal. Blood samples were collected immediately before administration of the agent and 8, 16, 24 and 31 weeks after the start of administration to measure total cholesterol levels (mg/dl). There were no changes observed in any of the dose groups as compared with the control group to which no agents were administered. In addition, the test animals were subjected to autopsy in the 31st week to investigate the surface area of aortic lesions (%) and the incidence of xanthochromia in finger joints.

[2] = test system: WHHL rabbits; experiment: Incidence of xanthochromia in finger joints (Example 1, 32 weeks); details: oral, CS-866 1 mg/kg, troglitazone 25 mg/kg, alone or combined
Procedure: (§1) A certain amount of an agent was administered orally for 32 weeks to 2-3 months old WHHL rabbits, Watanabe genetically hyperlipemic rabbits: supra (Biochimica et Biophysica Acta), etc., in groups of 4 to 7 animals each. Incidentally, food consumption was restricted to 120 g/day per animal. Blood samples were collected immediately before administration of the agent and 4, 8, 12, 16, 20, 24, 28 and 32 weeks after the start of administration to measure total cholesterol levels (mg/dl). There were no changes observed in any of the dose groups as compared with the control group to which no agents were administered. The test animals were subjected to autopsy in the 32nd week to investigate the surface area of aortic lesions (%) and the incidence of xanthochromia in finger joints (%).

[3] = test system: WHHL rabbits; experiment: Arterial sclerosis progress inhibitory effect: surface area of aortic lesions (Example 1, 32 weeks); details: oral, CS-866 1 mg/kg, troglitazone 25 mg/kg, alone or combined, autopsy in 32nd week
Procedure: as §1

Row | SMILES | Lesion surface area (%) Abdominal region [1] [%] | Lesion surface area (%) Arcuate region [1] [%] | Lesion surface area (%) Overall [1] [%] | Lesion surface area (%) Thoracic part [1] [%] | Xanthochromia incidence (%) Forelimbs [2] [%] | Xanthochromia incidence (%) Hindlimbs [2] [%] | Xanthochromia incidence (%) Overall [2] [%] | Lesion surface area (%) Abdominal region [3] [%] | Lesion surface area (%) Arcuate region [3] [%] | Lesion surface area (%) Overall [3] [%] | Lesion surface area (%) Thoracic part [3] [%]
1 | CN(CCOc1ccc(CC2SC(=O)NC2=O)cc1)c1ccccn1 (centres unmarked) [BRL-49653, 5-[4-[2-[N-methyl-N-(pyridin-2-yl)amino]ethoxy]phenylmethyl]-2,4-thiazolidinedione] | 29 ± 4 | 83 ± 2 | 52 ± 5 | 54 ± 12 | – | – | – | – | – | – | –
2 | CCCc1nc(C(C)(C)O)c(C(=O)OCc2oc(=O)oc2C)n1Cc1ccc(-c2ccccc2-c2nnn[nH]2)cc1 [CS-866, (5-methyl-2-oxo-1,3-dioxolen-4-yl)methyl 4-(1-hydroxy-1-methylethyl)-2-propyl-1-[2′-(1H-tetrazol-5-yl)biphenyl-4-ylmethyl]imidazole-5-carboxylate] | 32 ± 8 | 66 ± 5 | 44 ± 7 | 41 ± 10 | 100 | 100 | 100 | 19 | 68 | 34 | 26
3 | Cc1c(C)c2c(c(C)c1O)CCC(C)(COc1ccc(CC3SC(=O)NC3=O)cc1)O2 (centres unmarked) [Troglitazone, 5-[4-(6-hydroxy-2,5,7,8-tetramethylchroman-2-ylmethoxy)benzyl]-2,4-thiazolidinedione] | – | – | – | – | 93 | 86 | 89 | 32 | 80 | 54 | 57
4 | CCc1ccc(CCOc2ccc(CC3SC(=O)NC3=O)cc2)nc1 (centres unmarked) [Pioglitazone, 5-[4-[2-(5-ethyl-pyridin-2-yl)ethoxy]phenylmethyl]-2,4-thiazolidinedione] | 32 ± 6 | 65 ± 6 | 52 ± 8 | 62 ± 12 | – | – | – | – | – | – | –
